Activation data for 27 compounds are collected here from patent US9382188B2, “Aromatic ring compound” (TAKEDA PHARMACEUTICAL COMPANY LIMITED, priority 2012, dated 2016).

The target in the assay is T1, human GPR40 (Homo sapiens, UniProt O14842).
T1 construct: expressed in transfected cells
Briefly: Evaluation of human GPR40 agonist activity with increase in intracellular Ca2+ concentration as an index (FLIPR Tetra). Format: cell-based. The note with it: test compound 1 μM; CHO(dhfr-) cells stably expressing human GPR40; 100% = activity of 1 μM WO2009/048527 Example 99.2, 0% = DMSO. The procedure:
Evaluation of human GPR40 agonist activity with increase in intracellular Ca^2+ concentration as an index
CHO(dhfr-) cells that stably expressed human GPR40 were suspended in MEMα (Nikken Bio Medical Laboratory) containing 10% dialysis serum (GEMINI BIO-PRODUCTS), 10 mM HEPES (Invitrogen), 100 U/mL penicillin, 100 μg/mL streptomycin (Invitrogen), and plated on a 384 well black/clear cell culture plate at 10,000 cells/well. After culture overnight in a CO2 incubator at 37° C., the culture supernatant was removed, and a loading buffer [dye attached to Calcium 5 Assay Kit (Molecular Devices) was dissolved in an assay buffer (20 mM HEPES, 0.2% fatty acid-free BSA (Sigma-Aldrich), 2.5 mM probenecid (DOJINDO)-containing HBSS (Invitrogen)) added with 0.025% Cremophor EL (DOJINDO)] was added at 37.5 μL/well. After incubation in a CO2 incubator at 37° C. for 1 hr, the cells were stood at room temperature for 15 min, an assay buffer containing the test compound at a final concentration of 1 μM was added at 12.5 μL/well in FLIPR Tetra (Molecular Devices), and the fluorescence amount was successively measured. Human GPR40 agonist activity calculated using an increase in the intracellular Ca^2+ concentration as an index, wherein the activity of 1 μM of the compound described in WO 2009/048527 (WO2009/048527 Example 99.2) was 100%, and the activity when DMSO was added instead of the test compound was 0%.

T1 sequence (O14842 whole entry): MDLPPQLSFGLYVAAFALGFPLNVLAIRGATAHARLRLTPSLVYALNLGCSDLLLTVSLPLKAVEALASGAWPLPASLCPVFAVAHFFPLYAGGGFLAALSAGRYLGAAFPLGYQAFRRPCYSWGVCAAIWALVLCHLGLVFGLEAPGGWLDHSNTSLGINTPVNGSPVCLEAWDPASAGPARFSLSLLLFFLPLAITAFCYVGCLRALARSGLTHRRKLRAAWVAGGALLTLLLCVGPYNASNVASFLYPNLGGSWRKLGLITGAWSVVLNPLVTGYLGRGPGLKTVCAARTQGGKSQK

Take `C=CCCC(CC(=O)O)c1cccc(COc2ccc(-c3cc(OC)ccc3F)c(CC(C)(C)C)c2)c1` (stereo not drawn) [Example 43, 3-(3-(((2-(2,2-dimethylpropyl)-2′-fluoro-5′-methoxybiphenyl-4-yl)oxy)methyl)phenyl)hept-6-enoic acid]: the activation at 1 µM came out at 107%.

Consider `CC(C)(C)Cc1cc(OCc2cccc(C(CC(=O)O)C3CC3)c2)cnc1-c1cc(OC2CCCCO2)ccc1F` (stereo not drawn) [Example 44, 3-cyclopropyl-3-(3-(((5-(2,2-dimethylpropyl)-6-(2-fluoro-5-(tetrahydro-2H-pyran-2-yloxy)phenyl)pyridin-3-yl)oxy)methyl)phenyl)propanoic acid], for which the activation at 1 µM was 3%.

Consider `CC(C)(C)Cc1cc(OCc2cccc(C(CC(=O)O)C3CC3)c2)cnc1-c1ccccc1` (stereo not drawn) [Example 45, 3-cyclopropyl-3-(3-(((5-(2,2-dimethylpropyl)-6-phenylpyridin-3-yl)oxy)methyl)phenyl)propanoic acid], for which the activation at 1 µM turned out to be 55%.

As for `COc1cccc(-c2ncc(OCc3cccc(C(CC(=O)O)C4CC4)c3)cc2CC(C)(C)C)c1` (stereo not drawn) [Example 46, 3-cyclopropyl-3-(3-(((5-(2,2-dimethylpropyl)-6-(3-methoxyphenyl)pyridin-3-yl)oxy)methyl)phenyl)propanoic acid], the activation at 1 µM worked out at 117%.

As to `Cc1cccc(-c2ncc(OCc3cccc(C(CC(=O)O)C4CC4)c3)cc2CC(C)(C)C)c1` (stereo not drawn) [Example 47, 3-cyclopropyl-3-(3-(((5-(2,2-dimethylpropyl)-6-(3-methylphenyl)pyridin-3-yl)oxy)methyl)phenyl)propanoic acid], the activation at 1 µM came to 92%.

As to `COc1ccc(-c2ncc(OCc3cccc(C(CC(=O)O)C4CC4)c3)cc2CC(C)(C)C)cc1` (stereo not drawn) [Example 48, 3-cyclopropyl-3-(3-(((5-(2,2-dimethylpropyl)-6-(4-methoxyphenyl)pyridin-3-yl)oxy)methyl)phenyl)propanoic acid], the activation at 1 µM was -1%.

For `CC(C)(C)Cc1cc(OCc2cccc(C(CC(=O)O)C3CC3)c2)cnc1-c1cccc(OC(F)(F)F)c1` (stereo not drawn) [Example 49, 3-cyclopropyl-3-(3-(((5-(2,2-dimethylpropyl)-6-(3-(trifluoromethoxy)phenyl)pyridin-3-yl)oxy)methyl)phenyl)propanoic acid], the activation at 1 µM is -23%.

For the compound `COc1ccccc1-c1ncc(OCc2cccc(C(CC(=O)O)C3CC3)c2)cc1CC(C)(C)C` (stereo not drawn) [Example 50, 3-cyclopropyl-3-(3-(((5-(2,2-dimethylpropyl)-6-(2-methoxyphenyl)pyridin-3-yl)oxy)methyl)phenyl)propanoic acid], the activation at 1 µM was 9%.

Take `CC(C)(C)Cc1cc(OCc2cccc(C(CC(=O)O)C3CC3)c2)cnc1-c1cccc(C(=O)O)c1` (stereo not drawn) [Example 51, 3-(5-((3-(2-carboxy-1-cyclopropylethyl)benzyl)oxy)-3-(2,2-dimethylpropyl)pyridin-2-yl)benzoic acid]: the activation at 1 µM came out at 0%.

With `CC(C)(C)Cc1cc(OCc2cccc(C(CC(=O)O)C3CC3)c2)cnc1-c1cccc(C(F)(F)F)c1` (stereo not drawn) [Example 52, 3-cyclopropyl-3-(3-(((5-(2,2-dimethylpropyl)-6-(3-(trifluoromethyl)phenyl)pyridin-3-yl)oxy)methyl)phenyl)propanoic acid], the activation at 1 µM stood at 14%.

On to `COc1ccc(OC)c(-c2ncc(OCc3cccc(C(CC(=O)O)C4CC4)c3)cc2CC(C)(C)C)c1` (stereo not drawn) [Example 53, 3-cyclopropyl-3-(3-(((6-(2,5-dimethoxyphenyl)-5-(2,2-dimethylpropyl)pyridin-3-yl)oxy)methyl)phenyl)propanoic acid], for which the activation at 1 µM stood at 99%.

As for `COc1ccc(-c2ncc(OCc3cccc(C(CC(=O)O)C4CC4)c3)cc2CC(C)(C)C)cc1OC` (stereo not drawn) [Example 54, 3-cyclopropyl-3-(3-(((6-(3,4-dimethoxyphenyl)-5-(2,2-dimethylpropyl)pyridin-3-yl)oxy)methyl)phenyl)propanoic acid], the activation at 1 µM came to 3%.

On to `CC(C)(C)Cc1cc(OCc2cccc(C(CC(=O)O)C3CC3)c2)cnc1-c1cccc(O)c1` (stereo not drawn) [Example 55, 3-cyclopropyl-3-(3-(((5-(2,2-dimethylpropyl)-6-(3-hydroxyphenyl)pyridin-3-yl)oxy)methyl)phenyl)propanoic acid], for which the activation at 1 µM was 126%.

Regarding `COc1cc(OC)cc(-c2ncc(OCc3cccc(C(CC(=O)O)C4CC4)c3)cc2CC(C)(C)C)c1` (stereo not drawn) [Example 56, 3-cyclopropyl-3-(3-(((6-(3,5-dimethoxyphenyl)-5-(2,2-dimethylpropyl)pyridin-3-yl)oxy)methyl)phenyl)propanoic acid], the activation at 1 µM is 31%.

For the compound `COc1cc(-c2ncc(OCc3cccc(C(CC(=O)O)C4CC4)c3)cc2CC(C)(C)C)c(F)cn1` (stereo not drawn) [Example 57, 3-cyclopropyl-3-(3-(((3-(2,2-dimethylpropyl)-5′-fluoro-2′-methoxy-2,4′-bipyridin-5-yl)oxy)methyl)phenyl)propanoic acid], the activation at 1 µM came out at 106%.

`COc1ccc(C)c(-c2ncc(OCc3cccc(C(CC(=O)O)C4CC4)c3)cc2CC(C)(C)C)c1` (stereo not drawn) [Example 58, 3-cyclopropyl-3-(3-(((5-(2,2-dimethylpropyl)-6-(5-methoxy-2-methylphenyl)pyridin-3-yl)oxy)methyl)phenyl)propanoic acid]: the activation at 1 µM came out at 114%.

For `COc1ccc(Cl)c(-c2ncc(OCc3cccc(C(CC(=O)O)C4CC4)c3)cc2CC(C)(C)C)c1` (stereo not drawn) [Example 59, 3-(3-(((6-(2-chloro-5-methoxyphenyl)-5-(2,2-dimethylpropyl)pyridin-3-yl)oxy)methyl)phenyl)-3-cyclopropylpropanoic acid], the activation at 1 µM amounted to 115%.

Turning to `CC(C)(C)Cc1cc(OCc2cccc(C(CC(=O)O)C3CC3)c2)cnc1-c1cc(C#N)ccc1F` (stereo not drawn) [Example 60, 3-(3-(((6-(5-cyano-2-fluorophenyl)-5-(2,2-dimethylpropyl)pyridin-3-yl)oxy)methyl)phenyl)-3-cyclopropylpropanoic acid], the activation at 1 µM was determined as 56%.

With `CC(C)(C)Cc1cc(OCc2cccc(C(CC(=O)O)C3CC3)c2)cnc1-c1ccc(OC(F)(F)F)cc1` (stereo not drawn) [Example 61, 3-cyclopropyl-3-(3-(((5-(2,2-dimethylpropyl)-6-(4-(trifluoromethoxy)phenyl)pyridin-3-yl)oxy)methyl)phenyl)propanoic acid], the activation at 1 µM was 8%.

Take `CC(C)(C)Cc1cc(OCc2cccc(C(CC(=O)O)C3CC3)c2)cnc1-c1cccc(NS(C)(=O)=O)c1` (stereo not drawn) [Example 62, 3-cyclopropyl-3-(3-(((5-(2,2-dimethylpropyl)-6-(3-((methylsulfonyl)amino)phenyl)pyridin-3-yl)oxy)methyl)phenyl)propanoic acid]: the activation at 1 µM was 4%.

As for `Cc1cncc(-c2ncc(OCc3cccc(C(CC(=O)O)C4CC4)c3)cc2CC(C)(C)C)c1` (stereo not drawn) [Example 63, 3-cyclopropyl-3-(3-(((3-(2,2-dimethylpropyl)-5′-methyl-2,3′-bipyridin-5-yl)oxy)methyl)phenyl)propanoic acid], the activation at 1 µM came out at 21%.

For `COc1cncc(-c2ncc(OCc3cccc(C(CC(=O)O)C4CC4)c3)cc2CC(C)(C)C)c1` (stereo not drawn) [Example 66, 3-cyclopropyl-3-(3-(((3-(2,2-dimethylpropyl)-5′-methoxy-2,3′-bipyridin-5-yl)oxy)methyl)phenyl)propanoic acid], the activation at 1 µM stood at 57%.

As for `CC(C)(C)Cc1cc(OCc2cccc(C(CC(=O)O)C3CC3)c2)cnc1-c1cccc(S(=O)(=O)N2CCOCC2)c1` (stereo not drawn) [Example 67, 3-cyclopropyl-3-(3-(((5-(2,2-dimethylpropyl)-6-(3-(morpholin-4-ylsulfonyl)phenyl)pyridin-3-yl)oxy)methyl)phenyl)propanoic acid], the activation at 1 µM is 8%.

`CCOc1ccc(F)c(-c2ncc(OCc3cccc(C(CC(=O)O)C4CC4)c3)cc2CC(C)(C)C)c1` (stereo not drawn) [Example 68, 3-cyclopropyl-3-(3-(((5-(2,2-dimethylpropyl)-6-(5-ethoxy-2-fluorophenyl)pyridin-3-yl)oxy)methyl)phenyl)propanoic acid]: the activation at 1 µM came to 116%.

For `CC(C)Oc1ccc(F)c(-c2ncc(OCc3cccc(C(CC(=O)O)C4CC4)c3)cc2CC(C)(C)C)c1` (stereo not drawn) [Example 69, 3-cyclopropyl-3-(3-(((5-(2,2-dimethylpropyl)-6-(2-fluoro-5-isopropoxyphenyl)pyridin-3-yl)oxy)methyl)phenyl)propanoic acid], the activation at 1 µM came to 61%.

Regarding `CC(C)(C)Cc1cc(OCc2cccc(C(CC(=O)O)C3CC3)c2)cnc1-c1cc(OCC(F)(F)F)ccc1F` (stereo not drawn) [Example 70, 3-cyclopropyl-3-(3-(((5-(2,2-dimethylpropyl)-6-(2-fluoro-5-(2,2,2-trifluoroethoxy)phenyl)pyridin-3-yl)oxy)methyl)phenyl)propanoic acid], the activation at 1 µM was -8%.

As for `CCCCCOc1ccc(F)c(-c2ncc(OCc3cccc(C(CC(=O)O)C4CC4)c3)cc2CC(C)(C)C)c1` (stereo not drawn) [Example 71, 3-cyclopropyl-3-(3-(((5-(2,2-dimethylpropyl)-6-(2-fluoro-5-(pentyloxy)phenyl)pyridin-3-yl)oxy)methyl)phenyl)propanoic acid], the activation at 1 µM was found to be 1%.
